Source: patent US4000283A, “Compound 3,4,5-trimethoxyphenyl-(3,4-dimethyl-2-pyridyl)-carbonyl” (priority 1974, dated 1976)

What was measured:
[1] = test system: acetic acid-induced writhing; test: Analgesia, acetic acid-induced writhing technique in mice; assay type: in vivo, albino I.C.R. Swiss mice; conditions: for No. of writhes (x ± M.S.E.): Table B-I, control 112.1 ± 4.2; for No. of writhes (x ± M.S.E.) / Number of writhes (x ± M.S.E.): 30 min before acetic acid, counted during 20 min; for Number of writhes (x ± M.S.E.): Table B-II, control 99.6 ± 5.6; for analgesic activity: mice, i.p., compared with dextropropoxyphene
Procedure: The analgesic action was investigated in albino I.C.R. Swiss mice, using the acetic acid-induced writhing technique. Groups each of 10 mice were assembled.
The analgesics were injected intraperitoneally (i.p), and after 30 minutes 0.25 ml of a 1% solution of acetic acid was injected i.p. A control group received acetic acid only. The number of writhes made by each mouse was counted during the 20 minutes following the administration of acetic acid.

[2] = Acute toxicity in mice (i.p., Litchfield and Wilcoxon); assay type: in vivo, albino I.C.R. Swiss mice; conditions: mouse, in vivo, ip, albino I.C.R. Swiss mice, both sexes
Procedure: (§1) The acute toxicity studies were carried out in albino I.C.R. Swiss mice weighing 30 ± 2 g, of both sexes. The products were administered intraperitoneally (i.p). The acute toxicity was calculated according to the method of Litchfield and Wilcoxon.

albino I.C.R. Swiss mice = test: as above; assay type: in vivo; conditions: mice
Procedure: as §1

[3] = dextropropoxyphene, 25 mg/kg i.p.

| SMILES | No. of writhes (x ± M.S.E.) [1, 3] | Number of writhes (x ± M.S.E.) [1, 3] | LD50 [2] | No. of writhes (x ± M.S.E.) ([1]; Product I, 20 mg/kg i.p.) | analgesic activity [1] | Acute toxicity compared with dextropropoxyphene (albino I.C.R. Swiss mice) | Number of writhes (x ± M.S.E.) ([1]; Product II, 40 mg/kg i.p.) |
| --- | --- | --- | --- | --- | --- | --- | --- |
| CCC(=O)O[C@](Cc1ccccc1)(c1ccccc1)[C@H](C)CN(C)C [Dextropropoxyphene, reference compound] | 22.8 ± 4.74 writhes | 50.2 ± 4.4 writhes | 140 mg/kg | – | – | – | – |
| COc1cc(CC2C(C)=C(C)CCN2C)cc(OC)c1OC (centres unmarked) [Product I, 1,3,4-trimethyl-2-(3,4,5-trimethoxybenzyl)-1,2,5,6-tetrahydropyridine] | – | – | 154 mg/kg | 74.5 ± 4.84 writhes | has analgesic activity but less than that of dextropropoxyphene | less toxic than dextropropoxyphene | – |
| COc1cc(C(O)c2nccc(C)c2C)cc(OC)c1OC (centres unmarked) [Product II, 3,4,5-trimethoxyphenyl-(3,4-dimethyl-2-pyridyl)carbinol] | – | – | 292 mg/kg | – | high analgesic activity | less toxic than dextropropoxyphene | 29 ± 7.3 writhes |
